{"source": "ChEMBL document CHEMBL4825684", "about": "“Design, synthesis and biological evaluation of N-anthraniloyl tryptamine derivatives as pleiotropic molecules for the therapy of malignant glioma” (Eur J Med Chem, 2021)", "key": {"C6 [1]": {"tested_on": "C6", "assay": "Antiproliferative activity against rat C6 cells assessed as growth inhibition incubated for 72 hrs by CCK-8 assay", "assay_type": "functional, cell-based", "settings": "C6, 72 h"}, "U-251 [2]": {"tested_on": "U-251", "assay": "Antiproliferative activity against human U-251 cells assessed as growth inhibition incubated for 72 hrs by CCK-8 assay", "assay_type": "functional, cell-based", "settings": "U-251, 72 h"}, "[3]": {"biological_target": "Signal transducer and activator of transcription 3 (Homo sapiens) (UniProt P40763)", "sequence (P40763 whole entry)": "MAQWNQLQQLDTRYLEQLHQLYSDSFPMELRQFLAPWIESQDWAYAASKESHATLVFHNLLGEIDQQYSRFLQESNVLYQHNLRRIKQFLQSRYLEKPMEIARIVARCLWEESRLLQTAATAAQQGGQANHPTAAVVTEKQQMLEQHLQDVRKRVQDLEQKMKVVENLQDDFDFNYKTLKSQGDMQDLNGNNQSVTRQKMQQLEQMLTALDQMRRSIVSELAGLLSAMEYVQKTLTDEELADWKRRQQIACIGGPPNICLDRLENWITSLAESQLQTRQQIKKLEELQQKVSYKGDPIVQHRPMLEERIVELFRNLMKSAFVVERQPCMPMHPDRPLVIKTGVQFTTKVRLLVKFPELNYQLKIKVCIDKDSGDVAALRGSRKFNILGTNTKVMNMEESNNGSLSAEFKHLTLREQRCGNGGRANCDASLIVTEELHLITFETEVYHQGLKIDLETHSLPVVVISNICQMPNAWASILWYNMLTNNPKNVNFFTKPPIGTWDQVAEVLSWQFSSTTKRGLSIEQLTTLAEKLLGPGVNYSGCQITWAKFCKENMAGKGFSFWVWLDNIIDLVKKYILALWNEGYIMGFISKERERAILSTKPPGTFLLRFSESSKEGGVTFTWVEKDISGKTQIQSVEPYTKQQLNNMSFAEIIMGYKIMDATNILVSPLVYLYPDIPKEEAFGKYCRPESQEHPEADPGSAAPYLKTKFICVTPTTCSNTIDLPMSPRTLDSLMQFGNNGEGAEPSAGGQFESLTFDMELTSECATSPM", "assay": "Inhibition of STAT3 nuclear translocation in human U-87 MG cells incubated for 24 hrs by Hoechst staining based fluorescence confocal imaging analysis", "assay_type": "cell-based"}, "[4]": {"biological_target": "Signal transducer and activator of transcription 3 (Homo sapiens) (UniProt P40763)", "assay": "Inhibition STAT3 phosphorylation in human U-251 cells incubated up to 8 hrs by Western blot analysis", "assay_type": "cell-based", "settings": "time hrs <=8"}, "[5]": {"biological_target": "Signal transducer and activator of transcription 3 (Homo sapiens) (UniProt P40763)", "assay": "Inhibition STAT3 phosphorylation in human U-87 MG cells incubated up to 8 hrs by Western blot analysis", "assay_type": "cell-based", "settings": "time hrs <=8"}, "U-87 MG [6]": {"tested_on": "U-87 MG", "assay": "Antiproliferative activity against human U-87 MG cells assessed as colony formation ratio at 4 uM measured after 24 hrs by plate clone formation assay relative to control", "assay_type": "functional, U-87MG ATCC"}, "U-251 [7]": {"tested_on": "U-251", "assay": "Antiproliferative activity against human U-251 cells assessed as decrease in proliferation at 4 uM measured after 24 hrs by EdU assay relative to control", "assay_type": "functional, cell-based"}, "U-251 [8]": {"tested_on": "U-251", "assay": "Cytotoxicity against human U-251 cells assessed as cell viability at 4 uM measured up to 24 hrs", "assay_type": "functional", "settings": "U-251, 24 h, time hrs <=24, read-out: Activity"}, "U-251 [9]": {"tested_on": "U-251", "assay": "Cell cycle arrest in human U-251 cells assessed as accumulation at G2/M phase at 8 uM incubated for 48 hrs by PI staining based flow cytometry assay (reference value: 11.9%)", "assay_type": "functional"}, "U-251 [10]": {"tested_on": "U-251", "assay": "Induction of apoptosis in human U-251 cells assessed as viable cells at 2 uM incubated for 48 hrs by […] double staining based flow cytometry assay (reference value: 96.6%)", "assay_type": "functional", "settings": "read-out: Activity"}, "U-251 [11]": {"tested_on": "U-251", "assay": "Induction of apoptosis in human U-251 cells assessed as late apoptotic cells at 2 uM incubated for 48 hrs by […] double staining based flow cytometry assay (reference value: 1.39%)", "assay_type": "functional"}, "U-251 [12]": {"tested_on": "U-251", "assay": "Induction of apoptosis in human U-251 cells assessed as necrotic cells at 4 uM incubated for 48 hrs by […] double staining based flow cytometry assay (reference value: 1.32%)", "assay_type": "functional"}, "U-251 [13]": {"tested_on": "U-251", "assay": "Induction of apoptosis in human U-251 cells assessed as late apoptotic cells at 8 uM incubated for 48 hrs by […] double staining based flow cytometry assay (reference value: 1.39%)", "assay_type": "functional"}, "U-87 MG [14]": {"tested_on": "U-87 MG", "assay": "Induction of apoptosis in human U-87 MG cells assessed as viable cells at 2 uM incubated for 48 hrs by Annexin VIM double staining based flow cytometry assay (reference value: 97.8%)", "assay_type": "functional, U-87MG ATCC", "settings": "read-out: Activity"}, "U-87 MG [15]": {"tested_on": "U-87 MG", "assay": "Induction of apoptosis in human U-87 MG cells assessed as early apoptotic cells at 2 uM incubated for 48 hrs by […] double staining based flow cytometry assay (reference value: 0.63%)", "assay_type": "functional, U-87MG ATCC"}, "U-87 MG [16]": {"tested_on": "U-87 MG", "assay": "Induction of apoptosis in human U-87 MG cells assessed as necrotic cells at 2 uM incubated for 48 hrs by […] double staining based flow cytometry assay (reference value: 0.91%)", "assay_type": "functional, U-87MG ATCC"}, "U-87 MG [17]": {"tested_on": "U-87 MG", "assay": "Induction of apoptosis in human U-87 MG cells assessed as viable cells at 4 uM incubated for 48 hrs by Annexin VIM double staining based flow cytometry assay (reference value: 97.8%)", "assay_type": "functional, U-87MG ATCC", "settings": "read-out: Activity"}, "U-87 MG [18]": {"tested_on": "U-87 MG", "assay": "Induction of apoptosis in human U-87 MG cells assessed as early apoptotic cells at 4 uM incubated for 48 hrs by […] double staining based flow cytometry assay (reference value: 0.63%)", "assay_type": "functional, U-87MG ATCC"}, "U-87 MG [19]": {"tested_on": "U-87 MG", "assay": "Induction of apoptosis in human U-87 MG cells assessed as viable cells at 8 uM incubated for 48 hrs by Annexin VIM double staining based flow cytometry assay (reference value: 97.8%)", "assay_type": "functional, U-87MG ATCC", "settings": "read-out: Activity"}, "U-87 MG [20]": {"tested_on": "U-87 MG", "assay": "Induction of apoptosis in human U-87 MG cells assessed as early apoptotic cells at 8 uM incubated for 48 hrs by […] double staining based flow cytometry assay (reference value: 0.63%)", "assay_type": "functional, U-87MG ATCC"}, "U-87 MG [21]": {"tested_on": "U-87 MG", "assay": "Induction of apoptosis in human U-87 MG cells assessed as decrease in Bcl2/Bax ratio at 2 to 4 uM incubated for 48 hrs by Western blot analysis relative to control", "assay_type": "functional, cell-based", "settings": "U-87MG ATCC, dose 2-4 µM"}, "U-87 MG [22]": {"tested_on": "U-87 MG", "assay": "Induction of apoptosis in human U-87 MG cells assessed as increase in cytochrome c release at 1 to 4 uM incubated for 48 hrs by Western blot analysis relative to control", "assay_type": "functional, cell-based", "settings": "U-87MG ATCC, dose 1-4 µM"}, "U-87 MG [23]": {"tested_on": "U-87 MG", "assay": "Antimigratory activity against human U-87 MG cells assessed as inhibition of migration incubated for 24 hrs by matrigel trans well plate assay", "assay_type": "functional, cell-based", "settings": "U-87MG ATCC"}, "U-251 [24]": {"tested_on": "U-251", "assay": "Anti-invasion activity against human U-251 cells assessed as inhibition of invasion incubated for 24 hrs by matrigel trans well plate assay", "assay_type": "functional, cell-based", "settings": "dose 1-4 µM"}, "[25]": {"assay": "Acute toxicity in Kunming mouse assessed behavioural changes at 1000 mg/kg, ip measured for 14 days", "assay_type": "organism-based", "settings": "in vivo, 336 h, time 14 day"}, "[26]": {"assay": "Tmax in Sprague-Dawley rat at 60 mg/kg, ip measured up to 24 hrs by LC-MS analysis", "assay_type": "ADME, organism-based", "settings": "in vivo"}, "[27]": {"assay": "AUC (0 to t) in Sprague-Dawley rat at 60 mg/kg, ip measured up to 24 hrs by LC-MS analysis", "assay_type": "ADME, organism-based", "set-up": "route intraperitoneal, dose 60 mg/kg, time <=24", "settings": "in vivo"}, "[28]": {"assay": "Plasma concentration in Sprague-Dawley rat at 60 mg/kg, ip measured after 2 hrs by LC-MS analysis", "assay_type": "ADME, organism-based"}, "C6 [29]": {"tested_on": "C6", "assay": "Antitumor activity against rat C6 cells inoculated orthotopic Sprague-Dawley rat model assessed as increase in rat survival at 50 mg/kg, ip twice a day administered for 25 days (reference value: 16%)", "assay_type": "functional", "settings": "time 25 day"}, "C6 [30]": {"tested_on": "C6", "assay": "Antitumor activity against rat C6 cells inoculated orthotopic Sprague-Dawley rat model assessed as reduction tumor weight at 50 mg/kg, ip twice a day treated 3 days after tumor cell injection measured for 13 days after tumor implantation", "assay_type": "functional, organism-based", "settings": "time 3.0 day"}, "C6 [31]": {"tested_on": "C6", "assay": "Antitumor activity against rat C6 cells inoculated orthotopic Sprague-Dawley rat model assessed as decrease in PGE2 in tumor tissue at 50 mg/kg, ip twice a day treated 3 days after tumor cell injection measured for 13 days after tumor implantation […]", "assay_type": "functional, organism-based", "settings": "time 3.0 day"}, "[32]": {"assay": "Toxicity in rat C6 cells inoculated orthotopic Sprague-Dawley rat model assessed as autonomic movement at 50 mg/kg, ip twice a day administered for 13 days of tumor implantation by open field test", "assay_type": "organism-based", "settings": "in vivo, 312 h, time 13 day"}, "C6 [33]": {"tested_on": "C6", "assay": "Antitumor activity against rat C6 cells inoculated orthotopic Sprague-Dawley rat model assessed as inhibition of angiogenesis brain tissue at 50 mg/kg, ip twice a day administered for 13 days of tumor implantation", "assay_type": "functional, organism-based", "settings": "time 13.0 day"}}, "note": "Active and inactive are the calls of the source. The calls are words filed in the database; no cut-off is given here."}
{"smiles": "COc1cc(Nc2ccccc2C(=O)NCCc2c[nH]c3ccccc23)cc(OC)c1OC", "values": [{"measurement": "IC50", "setting": "C6 [1]", "value": 4.23, "unit": "µM"}, {"measurement": "IC50", "setting": "U-251 [2]", "value": 1.87, "unit": "µM"}, {"measurement": "inhibition", "setting": "[3]", "value": "Active"}, {"measurement": "inhibition", "setting": "[4]", "value": "Active"}, {"measurement": "inhibition", "setting": "[5]", "value": "Active"}, {"measurement": "Activity", "setting": "U-87 MG [6]", "value": 0, "unit": "%"}, {"measurement": "Activity", "setting": "U-251 [7]", "value": "Active"}, {"measurement": "viability at 4 µM", "setting": "U-251 [8]", "value": 80, "unit": "%"}, {"measurement": "Activity", "setting": "U-251 [9]", "value": 63.7, "unit": "%"}, {"measurement": "viability at 2 µM", "setting": "U-251 [10]", "value": 73.4, "unit": "%"}, {"measurement": "Activity", "setting": "U-251 [11]", "value": 17.4, "unit": "%"}, {"measurement": "Activity", "setting": "U-251 [12]", "value": 4.78, "unit": "%"}, {"measurement": "Activity", "setting": "U-251 [13]", "value": 26.2, "unit": "%"}, {"measurement": "viability at 2 µM", "setting": "U-87 MG [14]", "value": 95.1, "unit": "%"}, {"measurement": "Activity", "setting": "U-87 MG [15]", "value": 2.17, "unit": "%"}, {"measurement": "Activity", "setting": "U-87 MG [16]", "value": 1.23, "unit": "%"}, {"measurement": "viability at 4 µM", "setting": "U-87 MG [17]", "value": 88.5, "unit": "%"}, {"measurement": "Activity", "setting": "U-87 MG [18]", "value": 6.09, "unit": "%"}, {"measurement": "viability at 8 µM", "setting": "U-87 MG [19]", "value": 77.7, "unit": "%"}, {"measurement": "Activity", "setting": "U-87 MG [20]", "value": 13.8, "unit": "%"}, {"measurement": "Activity", "setting": "U-87 MG [21]", "value": "Active"}, {"measurement": "Activity", "setting": "U-87 MG [22]", "value": "Active"}, {"measurement": "Activity", "setting": "U-87 MG [23]", "value": "Active"}, {"measurement": "Activity", "setting": "U-251 [24]", "value": "Active"}, {"measurement": "Activity", "setting": "[25]", "value": "Non-Toxic"}, {"measurement": "Tmax", "setting": "[26]", "value": 25.2, "unit": "min"}, {"measurement": "AUC(0-t) at 24 h", "setting": "[27]", "value": 7330, "unit": "ng·h/mL"}, {"measurement": "concentration at 2 h", "setting": "[28]", "value": 520, "unit": "ng/mL"}, {"measurement": "Activity", "setting": "C6 [29]", "value": 66, "unit": "%"}, {"measurement": "Activity", "setting": "C6 [30]", "value": "Active"}, {"measurement": "Activity", "setting": "C6 [31]", "value": "Active"}, {"measurement": "Activity", "setting": "[32]", "value": "Non-Toxic"}, {"measurement": "Activity", "setting": "C6 [33]", "value": "Active"}]}
